According to patent US20070292403A1, “Methods of treating a neurological disorder with creatine monohydrate” (priority 2006, published 2007):
“Also recorded” adds a separate entry of the source.

Columns and labels:
[1] = test system: subjects with early Parkinson's disease (PD); test: Example 2: randomized double-blind futility trial, change in total UPDRS; format: in vivo, human; conditions: baseline to 12 months or time symptomatic therapy needed; creatine 10 g/day, minocycline 200 mg/day; worst change score imputed
Protocol: (§1) Study Design and Randomization. This example was a single arm futility study designed to assess creatine and minocycline. A placebo arm for calibration was included in the example. Eligible subjects were randomly assigned in a 1:1:1 fashion to receive 1) 10 g/day of creatine monohydrate and placebo minocycline, 2) placebo creatine monohydrate and 200 mg/day of minocycline, or 3) placebo creatine monohydrate and placebo minocycline. The primary futility analysis was at 12 months of follow-up, but each subject was followed for 18 months for additional safety information. Subjects and investigators were kept blinded to treatment group.
Participants. […] Two of the three cardinal manifestations of PD (tremor, rigidity, and bradykinesia) were required; these findings had to be asymmetric. The diagnosis of PD must have been made within 5 years of randomization. Women of childbearing potential were required to use adequate birth control and have a negative pregnancy test at baseline. Subjects were excluded if they had any secondary causes of parkinsonism, such as drug induced parkinsonism or structural lesions; had atypical parkinsonian syndromes; gait freezing or impairment in postural reflexes; had prior stereotaxis surgery for PD; used creatine, minocycline, or any investigational agent within 90 days prior to randomization; had known hypersensitivity to creatine or minocycline; used CoQ10 in doses greater than 300 mg 90 days prior to randomization; or had any clinically significant medical condition that could interfere with the subject's ability to safely participate in the study or be followed.
(§2) Dosages. Creatine was administered as 5 g sachets mixed with 8 ounces of liquid taken twice a day and minocycline was administered as 100 mg capsules taken twice a day. Both were taken with meals.
Outcome measures. […] Disability was assessed by the sight investigator, based on impairment in ambulation, activities in daily living, and occupational status. […] Both the site investigator and medical monitors assessed the potential relationship between SAEs and study drug. […]

[2] = test system: subjects with early Parkinson's disease (PD); test: Example 2: safety and tolerability in the early Parkinson's disease trial; format: in vivo, human
Protocol: as §1, §2
Outcome measures. The primary, prespecified outcome measure was the change in the total Unified PD Rating Scale (UPDRS) score from baseline to either the time at which there was sufficient disability to warrant symptomatic therapy for PD or 12 months, whichever came first. Disability was assessed by the sight investigator, based on impairment in ambulation, activities in daily living, and occupational status. The mean change in total UPDRS for each treatment group was compared to a prespecified futility threshold of a 30% reduction in the historically derived change in the total UPDRS, which was based on a placebo arm of a previous clinical trial. Tolerability was defined as the proportion of subjects taking study drug for the full 12 months. All […] adverse events (SAEs) were reviewed by the study medical monitor and an independent medical monitor. Both the site investigator and medical monitors assessed the potential relationship between SAEs and study drug.
Study Procedures. At the screening visit, the purpose and potential risks were explained to potential subjects and each subject gave written consent. […] Blood was obtained for serum chemistry and complete blood count. Participants were reevaluated at 1, 3, 6, 9, and 12 months (±6 days) after the baseline visit using the battery of clinical scales and blood was drawn again at 6 and 12 months.

## CN(C)c1ccc(O)c2c1C[C@H]1C[C@H]3[C@H](N(C)C)C(O)=C(C(N)=O)C(=O)[C@@]3(O)C(O)=C1C2=O [Minocycline, minocycline]
[1]
  Mean (SD) change in total UPDRS: 7.09 (8.71)
[2]; creatine 10 g/day, minocycline 200 mg/day
  SAEs occurring during the study: Six
[2]; creatine 10 g/day, minocycline 200 mg/day, 12 months
  Tolerability: generally well tolerated; also recorded: less well tolerated than creatine
[2]; human, in vivo
  Patients with dose reductions: 15
